The source of these data is ChEMBL document CHEMBL4823249, “Discovery of a Pyrimidinedione Derivative as a Potent and Orally Bioavailable Axl Inhibitor” (J Med Chem, 2021).

In data set [1] the target is T1, Tyrosine-protein kinase receptor UFO (Mus musculus) (UniProt Q00993).
T1 sequence (whole entry): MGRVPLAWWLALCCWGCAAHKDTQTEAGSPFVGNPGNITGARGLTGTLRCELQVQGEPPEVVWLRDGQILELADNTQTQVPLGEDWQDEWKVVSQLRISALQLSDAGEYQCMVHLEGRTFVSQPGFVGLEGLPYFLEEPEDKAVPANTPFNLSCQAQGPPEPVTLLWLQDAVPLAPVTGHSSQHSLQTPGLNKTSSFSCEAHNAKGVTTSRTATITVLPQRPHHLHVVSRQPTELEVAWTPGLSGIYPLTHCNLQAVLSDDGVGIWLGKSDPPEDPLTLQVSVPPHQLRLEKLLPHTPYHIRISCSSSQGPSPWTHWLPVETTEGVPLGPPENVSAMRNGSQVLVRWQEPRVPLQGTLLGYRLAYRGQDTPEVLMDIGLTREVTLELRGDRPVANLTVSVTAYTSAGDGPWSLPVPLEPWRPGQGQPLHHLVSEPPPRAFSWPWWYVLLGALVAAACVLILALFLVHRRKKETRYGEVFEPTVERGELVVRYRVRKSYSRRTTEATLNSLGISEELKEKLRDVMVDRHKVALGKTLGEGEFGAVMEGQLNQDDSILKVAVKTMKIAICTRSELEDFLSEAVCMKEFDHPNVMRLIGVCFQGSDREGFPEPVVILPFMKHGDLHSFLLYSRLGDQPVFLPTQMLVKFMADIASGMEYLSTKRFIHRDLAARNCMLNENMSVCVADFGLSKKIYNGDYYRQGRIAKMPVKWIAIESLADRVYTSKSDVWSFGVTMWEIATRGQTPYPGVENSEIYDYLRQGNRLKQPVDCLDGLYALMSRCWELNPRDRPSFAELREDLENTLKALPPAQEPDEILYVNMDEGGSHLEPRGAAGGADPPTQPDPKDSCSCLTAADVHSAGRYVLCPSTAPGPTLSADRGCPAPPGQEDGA
In words: Inhibition of AXL in mouse BaF3/TEL-AXL cells assessed as reduction in Gas6-induced phosphorylation of AXL at 0.5 to 50 nM preincubated for 2 hrs followed by Gas6 stimulation for 15 mins by Western blotting analysis. It counts as cell-based. The settings on record: dose 0.5-50 nM. On the technique in general: In western blotting, separated proteins are transferred to a membrane and probed.

The nature of data set [2]: Oral availability in ICR mouse at 3 mg/kg measured upto 24 hrs by LC-MS analysis. The settings on record: in vivo. Format: ADME, organism-based.
The target of data set [3] is Hepatocyte growth factor receptor (Homo sapiens, UniProt P08581). In words: Inhibition of MET signaling in human EBC1 cells assessed as reduction in phosphorylation of ERK after 2 hrs by Western blotting analysis. Format: cell-based. The settings on record: EBC-1, dose 10-100 nM.
Sequence of Hepatocyte growth factor receptor (P08581 whole entry): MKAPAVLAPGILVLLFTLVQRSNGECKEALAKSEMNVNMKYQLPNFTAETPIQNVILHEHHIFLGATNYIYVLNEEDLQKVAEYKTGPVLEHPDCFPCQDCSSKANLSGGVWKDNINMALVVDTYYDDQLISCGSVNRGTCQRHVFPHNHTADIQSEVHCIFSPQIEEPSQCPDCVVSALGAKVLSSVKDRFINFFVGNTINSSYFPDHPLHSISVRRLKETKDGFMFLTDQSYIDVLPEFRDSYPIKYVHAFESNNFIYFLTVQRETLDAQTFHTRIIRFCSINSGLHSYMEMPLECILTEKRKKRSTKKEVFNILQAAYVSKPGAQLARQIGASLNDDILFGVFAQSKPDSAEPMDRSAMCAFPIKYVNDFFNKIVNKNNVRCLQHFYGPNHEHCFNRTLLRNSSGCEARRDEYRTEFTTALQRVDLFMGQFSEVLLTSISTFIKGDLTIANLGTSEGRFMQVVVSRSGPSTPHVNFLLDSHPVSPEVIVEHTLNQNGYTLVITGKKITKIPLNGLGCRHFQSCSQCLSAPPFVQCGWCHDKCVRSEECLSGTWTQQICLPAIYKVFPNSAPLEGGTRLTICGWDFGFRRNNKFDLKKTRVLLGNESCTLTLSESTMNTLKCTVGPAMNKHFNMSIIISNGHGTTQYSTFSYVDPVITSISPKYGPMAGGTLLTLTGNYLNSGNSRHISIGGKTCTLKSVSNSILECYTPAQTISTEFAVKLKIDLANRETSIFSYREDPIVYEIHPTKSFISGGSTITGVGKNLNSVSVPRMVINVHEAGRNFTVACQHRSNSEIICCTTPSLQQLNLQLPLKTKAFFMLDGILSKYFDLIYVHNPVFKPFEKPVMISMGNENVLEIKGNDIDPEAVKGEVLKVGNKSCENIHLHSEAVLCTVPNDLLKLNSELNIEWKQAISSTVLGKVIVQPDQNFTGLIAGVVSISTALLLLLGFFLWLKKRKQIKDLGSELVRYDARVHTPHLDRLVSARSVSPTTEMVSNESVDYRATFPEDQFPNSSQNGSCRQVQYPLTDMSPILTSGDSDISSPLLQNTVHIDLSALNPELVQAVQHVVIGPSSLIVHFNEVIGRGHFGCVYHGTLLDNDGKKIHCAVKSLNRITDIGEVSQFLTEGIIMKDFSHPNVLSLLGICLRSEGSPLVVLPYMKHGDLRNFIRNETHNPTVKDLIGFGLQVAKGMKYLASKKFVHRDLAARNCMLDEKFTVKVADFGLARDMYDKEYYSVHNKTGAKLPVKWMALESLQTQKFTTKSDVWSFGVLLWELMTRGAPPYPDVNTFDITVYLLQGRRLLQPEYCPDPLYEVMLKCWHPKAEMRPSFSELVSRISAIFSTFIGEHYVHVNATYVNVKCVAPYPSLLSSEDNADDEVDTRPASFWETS
In the next data set the test system is BaF3. In words: Antitumor activity against mouse BaF3/TEL-AXL cells xenografted in BALB/c nude mouse assessed as tumor growth inhibition at 25 mg/kg, po administered once daily for 14 days by caliper method. Format: functional. Particulars: 336 h, time 14 day, read-out: TGI.
The target of the next data set is CDK12/Cyclin K (Homo sapiens, UniProt Q9NYV4). In words: Inhibition of recombinant full length human CDK12/CyclinK using RSRSRSRSRSRSR as substrate incubated for 40 mins in presence of [gamma-33ATP] by scintillation counting based radiometry assay. It counts as protein-complex assay.
Sequence of CDK12/Cyclin K (O75909 whole entry): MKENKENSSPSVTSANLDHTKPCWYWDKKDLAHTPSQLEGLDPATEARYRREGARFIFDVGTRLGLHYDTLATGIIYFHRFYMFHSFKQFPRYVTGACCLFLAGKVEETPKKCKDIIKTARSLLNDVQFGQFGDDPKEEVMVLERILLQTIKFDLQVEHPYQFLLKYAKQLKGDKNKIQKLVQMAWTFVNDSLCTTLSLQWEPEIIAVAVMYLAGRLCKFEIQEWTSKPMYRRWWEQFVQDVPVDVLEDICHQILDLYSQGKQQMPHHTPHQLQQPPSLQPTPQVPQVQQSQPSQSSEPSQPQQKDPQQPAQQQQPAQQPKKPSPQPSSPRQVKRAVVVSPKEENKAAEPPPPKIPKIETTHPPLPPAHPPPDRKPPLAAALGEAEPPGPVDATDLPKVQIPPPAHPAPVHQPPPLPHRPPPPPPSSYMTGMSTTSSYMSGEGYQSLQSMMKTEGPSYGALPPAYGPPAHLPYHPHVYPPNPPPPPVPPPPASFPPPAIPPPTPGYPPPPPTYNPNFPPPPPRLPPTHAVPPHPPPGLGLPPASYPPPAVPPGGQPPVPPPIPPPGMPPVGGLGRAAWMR
Sequence of CDK12/Cyclin K (Q9NYV4 whole entry): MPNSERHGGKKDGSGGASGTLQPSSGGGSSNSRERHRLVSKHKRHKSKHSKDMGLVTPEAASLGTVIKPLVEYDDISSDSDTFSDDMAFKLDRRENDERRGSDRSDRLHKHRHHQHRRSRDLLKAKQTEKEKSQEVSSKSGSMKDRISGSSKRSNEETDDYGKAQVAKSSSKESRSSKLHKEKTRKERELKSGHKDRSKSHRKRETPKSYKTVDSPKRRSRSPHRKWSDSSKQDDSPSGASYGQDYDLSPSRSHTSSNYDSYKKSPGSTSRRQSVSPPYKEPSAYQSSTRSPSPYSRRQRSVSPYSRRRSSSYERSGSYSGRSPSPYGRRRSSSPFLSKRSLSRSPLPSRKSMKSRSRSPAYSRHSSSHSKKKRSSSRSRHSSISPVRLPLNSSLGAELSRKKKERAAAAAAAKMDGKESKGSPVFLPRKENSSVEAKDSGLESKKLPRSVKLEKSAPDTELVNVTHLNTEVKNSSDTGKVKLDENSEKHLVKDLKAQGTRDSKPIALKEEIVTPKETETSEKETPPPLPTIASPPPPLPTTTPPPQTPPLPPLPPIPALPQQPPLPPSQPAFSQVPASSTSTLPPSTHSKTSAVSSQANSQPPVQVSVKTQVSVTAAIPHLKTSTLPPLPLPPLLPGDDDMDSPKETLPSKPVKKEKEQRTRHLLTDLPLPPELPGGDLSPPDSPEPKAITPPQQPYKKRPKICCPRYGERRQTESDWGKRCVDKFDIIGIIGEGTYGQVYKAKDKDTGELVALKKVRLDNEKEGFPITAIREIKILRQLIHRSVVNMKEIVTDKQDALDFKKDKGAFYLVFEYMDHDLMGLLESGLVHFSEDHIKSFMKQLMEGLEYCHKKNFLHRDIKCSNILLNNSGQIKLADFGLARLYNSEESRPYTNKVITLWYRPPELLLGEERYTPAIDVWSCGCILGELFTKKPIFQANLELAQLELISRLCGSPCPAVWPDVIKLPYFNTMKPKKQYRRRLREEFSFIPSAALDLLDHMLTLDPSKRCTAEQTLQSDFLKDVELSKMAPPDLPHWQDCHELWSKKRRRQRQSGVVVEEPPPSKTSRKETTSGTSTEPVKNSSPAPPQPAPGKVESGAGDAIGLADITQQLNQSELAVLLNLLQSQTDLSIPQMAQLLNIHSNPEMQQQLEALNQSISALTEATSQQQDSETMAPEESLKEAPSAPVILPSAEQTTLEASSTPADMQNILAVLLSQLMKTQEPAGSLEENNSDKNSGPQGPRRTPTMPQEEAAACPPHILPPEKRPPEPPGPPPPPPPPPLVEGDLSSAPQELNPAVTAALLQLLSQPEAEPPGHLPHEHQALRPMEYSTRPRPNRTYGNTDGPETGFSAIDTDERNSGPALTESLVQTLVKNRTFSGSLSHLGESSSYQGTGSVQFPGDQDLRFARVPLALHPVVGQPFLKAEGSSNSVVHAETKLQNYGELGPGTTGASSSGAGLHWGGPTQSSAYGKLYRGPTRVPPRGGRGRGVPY
Data set [4] in a line: Half life in ICR mouse at 3 mg/kg, po measured upto 24 hrs by LC-MS analysis. Format: ADME, organism-based. The settings on record: in vivo.

The source made the active and inactive calls. The rule behind the calls is not given here. Bounds are passed on as bounds.

The term IC50 denotes the concentration needed to halve the response being measured. By half-life is commonly meant how long it takes for the measured level to halve. Low values mean fast loss, high ones slow loss. Consider `CC(C)n1cc(C(=O)Nc2ccc(Oc3ccnc(NC(=O)C4CC4)c3)c(F)c2)c(=O)n(-c2ccc(F)cc2)c1=O`, for which the inhibition entry in data set [1] was “Active”. The bioavailability in data set [2] amounted to 114%. The inhibition entry in data set [3] was “Dose-Dependent Effect”. The inhibition in vivo at 25 mg/kg in the data set with BaF3 worked out at 106%. The IC50 on CDK12/Cyclin K is > 1 µM. Besides, in data set [4], the half-life is 5.2 h.
